Source: patent US20060014811A1, “Medicament for treatment of cancer” (priority 2002, published 2006)

Key:
[1] = tested on: B16 melanoma; assay: Metastasis inhibitory test using mouse bearing B16 melanoma; type: in vivo, B6 mouse; set-up: key to Colony Formation (melanoma colonies in the lungs vs control): ±: Same as control; +: Inhibited; ++: Remarkably inhibited; +++: No Formation; settings: 30 mg/kg intraperitoneal once a day for 5 weeks, B16 melanoma cells inoculated by tail vein
Method: B16 melanoma cells (5×10^5 cells/mouse) were inoculated from a tail vein of a B6 mouse of the same kind by intravenous injection, and a test substance was administered once a day for 5 weeks from the day of the inoculation by intraperitoneal injection. Then, the test animal was sacrificed and the lungs were removed. The number of colonies of melanoma in the lungs was compared with that in the control (test substance administered at 0 mg/kg).

[2] = tested on: A549: human lung cancer; assay: Inhibitory test against cancer cell proliferation (3); type: cell-based; settings: Test Example 6, 50% inhibitory concentration against proliferation, similar operations to Test Example 1
Method: (§1) Cancer cells (Jurkat: Human T-cell leukemia, MIA PACA-2: Human pancreatic cancer, RD: Human rhabdomyoma, HepG2: Human liver cancer) were cultured for 3 days in the presence or absence of a test compound using RPMI1640 medium containing 10% bovine fetal serum or Dalbecco's Modified Eagle's Medium containing 10% FBS. The number of living cells was counted by MTS method, and amounts of cell proliferation were compared and inhibitory ratios were measured. In the table below, 50% inhibitory concentrations against the proliferation of each cancer cell are shown.
(§2) Similar operations to Test Example 1 were carried out using cancer cells (HepG2: human liver cancer, A^549: human lung cancer, MIA PACA-2: human pancreatic cancer). In the table below, 50% inhibitory concentrations against proliferation of each cancer cell are shown.

[3] = tested on: HepG2: Human liver cancer; assay: as above; type: cell-based; settings: Test Example 6, 50% inhibitory concentration against proliferation, similar operations to Test Example 1
Method: as §1, §2

[4] = tested on: MIA PACA-2: Human pancreatic cancer; assay: as above; type: cell-based; settings: Test Example 6, 50% inhibitory concentration against proliferation, similar operations to Test Example 1
Method: as §1, §2

[5] = tested on: RD: Human rhabdomyoma; assay: Inhibitory test against cancer cell proliferation (1), MTS method; type: cell-based; settings: 50% inhibitory concentration against proliferation, cultured for 3 days
Method: as §1

[6] = tested on: HepG2: Human liver cancer; assay: as above; type: cell-based; settings: 50% inhibitory concentration against proliferation, cultured for 3 days
Method: as §1

[7] = tested on: Jurkat: Human T-cell leukemia; assay: as above; type: cell-based; settings: 50% inhibitory concentration against proliferation, cultured for 3 days
Method: as §1

[8] = tested on: MIA PACA-2: Human pancreatic cancer; assay: as above; type: cell-based; settings: 50% inhibitory concentration against proliferation, cultured for 3 days
Method: as §1

| IC50 ([2]; Homo sapiens, A549) [µM] | IC50 ([3]; Homo sapiens, HepG2) [µM] | IC50 ([4]; Homo sapiens, MIA PaCa-2) [µM] | Compound | IC50 ([5]; Homo sapiens, 72 h) [µM] | IC50 ([6]; Homo sapiens, HepG2, 72 h) [µM] | IC50 ([7]; Homo sapiens, Jurkat, 72 h) [µM] | IC50 ([8]; Homo sapiens, MIA PaCa-2, 72 h) [µM] | further results |
| --- | --- | --- | --- | --- | --- | --- | --- | --- |
| – | – | – | O=C(Nc1cc(C(F)(F)F)cc(C(F)(F)F)c1)c1cc(Cl)ccc1O [compound 4, N-[3,5-bis(trifluoromethylphenyl)]-5-chloro-2-hydroxybenzamide] | – | – | – | – | Colony Formation (melanoma colonies in the lungs vs control) [1]: ++; Survival Ratio after 5 weeks(%) ([1]; control 50%): 100%; IC50 [2]: 4.03 µM; IC50 [3]: 0.72 µM; IC50 [4]: 0.82 µM; IC50 [5]: 1.03 µM; IC50 [6]: 0.69 µM; IC50 [7]: 0.74 µM; IC50 [8]: 0.65 µM |
| – | – | – | CC(C)(C)c1ccc(O)c(C(=O)Nc2cc(C(F)(F)F)cc(C(F)(F)F)c2)c1 [compound 11, N-[3,5-Bis(trifluoromethyl)phenyl]-5-[(1,1-dimethyl)ethyl]-2-hydroxybenzamide] | 1.96 | 1.82 | 1.21 | 0.78 | – |
| – | – | – | O=C(Nc1cc(C(F)(F)F)cc(C(F)(F)F)c1)c1cc(-n2cccc2)ccc1O [compound 27] | – | – | – | – | IC50 [5]: 1.26 µM; IC50 [6]: 1.96 µM; IC50 [7]: 1.2 µM; IC50 [8]: 1.19 µM |
| – | – | – | O=C(Nc1cc(C(F)(F)F)cc(C(F)(F)F)c1)c1cc(C(=O)N2CCC(Cc3ccccc3)CC2)ccc1O [compound 40, N-[3,5-Bis(trifluoromethyl)phenyl]-2-hydroxy-5-(4-benzylpiperidine-1-carbonyl)benzamide] | – | – | – | – | melting point: 179 to 180 °C |
| – | – | – | CC(=O)Oc1ccccc1C(=O)Nc1cc(Cl)cc(Cl)c1 [compound 120, 2-acetoxy-N-(3,5-dichlorophenyl)benzamide] | – | – | – | – | melting point: 218 to 219 °C |
| > 10 | 4.23 | > 10 | CC(C)(C)c1nc(NC(=O)c2cc(Br)ccc2O)sc1N1CCOCC1 [compound 205, 5-Bromo-N-{4-[(1,1-dimethyl)ethyl]-5-morpholinothiazol-2-yl}-2-hydroxybenzamide] | 1.94 | 3.5 | 1.89 | 1.45 | – |
| – | – | – | CC(C)(C)c1nc(NC(=O)c2cc(Br)ccc2O)sc1N1CCN(c2ccccc2)CC1 [compound 207, 5-Bromo-N-{4-[(1,1-dimethyl)ethyl]-5-(4-phenylpiperazin-1-yl)thiazol-2-yl}-2-hydroxybenzamide] | 1.52 | 1.76 | 1.64 | 1.26 | – |
| 8.31 | 4.98 | 2.76 | O=C(Nc1nc(-c2ccccc2)c(C(=O)c2ccccc2)s1)c1cc(Br)ccc1O [compound 215, 5-Bromo-N-(5-benzoyl-4-phenylthiazol-2-yl)-2-hydroxybenzamide] | – | – | – | – | – |

| Compound | IC50 ([2]; Homo sapiens, A549) [µM] | IC50 ([3]; Homo sapiens, HepG2) [µM] | IC50 ([4]; Homo sapiens, MIA PaCa-2) [µM] | IC50 ([5]; Homo sapiens, 72 h) [µM] | IC50 ([6]; Homo sapiens, HepG2, 72 h) [µM] | IC50 ([7]; Homo sapiens, Jurkat, 72 h) [µM] | IC50 ([8]; Homo sapiens, MIA PaCa-2, 72 h) [µM] | further results |
| --- | --- | --- | --- | --- | --- | --- | --- | --- |
| CC(C)(C)C(=O)c1sc(NC(=O)c2cc(Cl)ccc2O)nc1C(C)(C)C [compound 199, 5-Chloro-N-{4-[(1,1-dimethyl)ethyl]-5-[(2,2-dimethyl)propionyl]thiazol-2-yl}-2-hydroxybenzamide] | 5.15 | 0.59 | 0.56 | 0.57 | 1.26 | 0.44 | 0.46 | – |
